What was measured:
[1] = 1 h, pH 7.4
[2] = 1 h, pH 7.4; remark: listed apart in the source
LCMV = experiment: microbe, parasite or virus in culture; format: cell-based, lymphocytic choriomeningitis virus (LCMV)
MACV-p = experiment: organism not typed; format: cell-based, Machupo (MACV); settings: Vero, 24 h, read-out: MACV-p EC50 (nM)
TCRV-p = experiment: organism not typed; format: cell-based; settings: Vero, 24 h, read-out: TCRV-p EC50 (nM)
[3] = 1 h, pH 7.4; remark: listed apart in the source
[4] = test system: native replicating Tacaribe (TCRV) virus; experiment: microbe, parasite or virus in culture; format: cell-based
in vivo = settings: guinea pig, po, 10 mg/kg
JUNV = experiment: organism not typed; format: cell-based, Junin (JUNV)
LASV = experiment: organism not typed; format: cell-based, Lassa (LASV)
[5] = guinea pig, in vivo, 10 mg/kg
VSV-p = experiment: microbe, parasite or virus in culture; format: cell-based; settings: Vesicular stomatitis virus, Vero, 24 h, read-out: VSV-p EC50 (nM)
LASV-p = experiment: organism not typed; format: cell-based, Lassa (LASV); settings: Vero, 24 h, read-out: LASV-p EC50 (nM)
[6] = guinea pig, 1 h, pH 7.4
GTOV-p = experiment: organism not typed; format: cell-based, Guanarito (GTOV); settings: Vero, 24 h, read-out: GTOV-p EC50 (nM)
JUNV-p = experiment: organism not typed; format: cell-based, Junin (JUNV); settings: Vero, 24 h, read-out: JUNV-p EC50 (nM)
in vitro = settings: African green monkey
[7] = 1 h, pH 7.4; remark: listed apart in the source
hERG channel = hERG channel (Homo sapiens, UniProt Q12809); settings: pH 7.4
Sequence of hERG channel (Q12809 whole entry): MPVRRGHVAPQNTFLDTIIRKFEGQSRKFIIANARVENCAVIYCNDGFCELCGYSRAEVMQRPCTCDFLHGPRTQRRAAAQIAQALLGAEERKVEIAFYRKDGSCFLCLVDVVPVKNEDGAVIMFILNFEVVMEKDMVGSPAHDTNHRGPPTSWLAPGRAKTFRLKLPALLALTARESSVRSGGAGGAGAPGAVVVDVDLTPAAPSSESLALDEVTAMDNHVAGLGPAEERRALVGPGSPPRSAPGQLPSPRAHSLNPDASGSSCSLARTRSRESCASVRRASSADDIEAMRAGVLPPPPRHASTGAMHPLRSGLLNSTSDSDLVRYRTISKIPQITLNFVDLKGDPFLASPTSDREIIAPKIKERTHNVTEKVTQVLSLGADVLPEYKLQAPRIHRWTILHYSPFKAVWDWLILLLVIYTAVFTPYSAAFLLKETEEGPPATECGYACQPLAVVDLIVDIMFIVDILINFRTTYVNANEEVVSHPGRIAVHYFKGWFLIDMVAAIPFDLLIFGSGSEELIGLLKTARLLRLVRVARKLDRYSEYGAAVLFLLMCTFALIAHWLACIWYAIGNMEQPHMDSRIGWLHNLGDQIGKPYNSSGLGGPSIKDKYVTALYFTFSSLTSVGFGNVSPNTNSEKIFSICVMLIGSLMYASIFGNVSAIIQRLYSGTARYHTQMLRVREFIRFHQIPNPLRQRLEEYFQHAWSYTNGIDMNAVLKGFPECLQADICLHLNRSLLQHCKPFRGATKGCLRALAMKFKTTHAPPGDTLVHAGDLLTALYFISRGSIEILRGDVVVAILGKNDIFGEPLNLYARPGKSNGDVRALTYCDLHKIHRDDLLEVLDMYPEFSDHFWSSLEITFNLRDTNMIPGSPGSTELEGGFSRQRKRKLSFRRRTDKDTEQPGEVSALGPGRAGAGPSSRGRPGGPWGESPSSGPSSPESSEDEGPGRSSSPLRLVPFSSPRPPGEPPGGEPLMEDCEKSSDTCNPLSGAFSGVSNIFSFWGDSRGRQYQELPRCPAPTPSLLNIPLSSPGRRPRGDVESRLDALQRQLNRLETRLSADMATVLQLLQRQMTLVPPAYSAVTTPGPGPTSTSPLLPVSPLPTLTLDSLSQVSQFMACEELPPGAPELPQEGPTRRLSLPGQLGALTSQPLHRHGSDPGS

[8] = 1 h, pH 7.4; remark: listed apart in the source

Structure (SMILES)	Percent parent compound remaining at 60 minutes in liver microsomes, Rat [1] [%]	Percent parent compound remaining at 60 minutes in liver microsomes, Human [2] [%]	EC50 (MACV-p) [nM]	EC50 (TCRV-p) [nM]	Percent parent compound remaining at 60 minutes in liver microsomes, Mouse [3] [%]	EC50 (LASV-p) [nM]	Percent parent compound remaining at 60 minutes in liver microsomes, Guinea [6] [%]	EC50 (GTOV-p) [nM]	EC50 (JUNV-p) [nM]	CC50 (in vitro) [nM]	Percent parent compound remaining at 60 minutes in liver microsomes, Monkey [7] [%]	further results
CC(C)Oc1ccc(-n2cnc3ccc(-c4ccc(C(C)(C)O)cc4)cc32)cc1 [Example A17, 2-(4-{1-[4-(propan-2-yloxy)phenyl]-1H-1,3-benzodiazol-6-yl}phenyl)propan-2-ol]	86	69	0.2	0.6	44	1.1	62	0.52	0.2	5810	7	LCMV SI90 (LCMV): 12; EC90 (LCMV; Mammarenavirus choriomeningitidis, read-out: LCMV EC90 uM): 0.71 µM; TCRV SI50 [4]: 609; EC50 ([4]; Mammarenavirus tacaribeense, Vero, 120 h, read-out: TCRV EC50 uM): 0.023 µM; Cmax (in vivo): 639 ng/mL; Tmax (in vivo): 1 h; half-life (in vivo): 4 to 6 h; JUNV SI (JUNV): 82; EC50 (JUNV; 120 h, read-out: JUNV EC50 uM): 0.115 µM; LASV SI (LASV): 249; EC50 (LASV; 120 h, read-out: LASV EC50 uM): 0.06 µM; oral exposure [5]: demonstrated oral exposure; T ½ ([5]; po): 4 to 6 h; EC50 (VSV-p): > 1000 nM
Cc1c(-c2ccc(OC(C)C)cc2)ccc2ncc(-c3ccc(OC(C)C)cc3)n12 [Example C51, 5-methyl-3,6-bis[4-(propan-2-yloxy)phenyl]imidazo[1,2-a]pyridine]	75	100	0.13	0.37	92	0.31	95	0.21	0.15	4190	21	hERG % Inhibition (hERG channel): 49%; Percent parent compound remaining at 60 minutes in liver microsomes, Dog [8]: 82%

From patent US20220281825A1 (priority 2016, published 2022)
